A short description of series [1]: Inhibition of NFkappaB in mouse RAW 264.7 cells assessed as reduction in LPS induced NO production after 24 hrs by Griess assay. The settings on record: RAW264.7, 24 h. Type of series: cell-based. (In general: The Griess reaction detects nitrite, a stable product of nitric oxide.)
For series [2], the species on record is Mus musculus. In words: Inhibition of NFkappaB in mouse RAW 264.7 cells assessed as reduction in LPS induced NO production at 10 uM after 24 hrs by Griess assay relative to control. It counts as cell-based.
The test system of series [3] is MCF7. Briefly: cells. The settings on record: Homo sapiens, MCF7, 72 h.
The nature of series [4]: Inhibition of NFkappaB in mouse RAW 264.7 cells assessed as reduction in LPS induced NO production after 24 hrs in presence of OBHS by Griess assay. The settings on record: RAW264.7, 24 h.
Series [5] deals with MCF7. In words: Antiproliferative activity against human MCF7 cells after 72 hrs in presence of OBHS by MTT assay. The settings on record: MCF7, 72 h.
For series [6], the species on record is Mus musculus. Briefly: Inhibition of NFkappaB in mouse RAW 264.7 cells assessed as reduction in LPS induced NO production at 10 uM after 24 hrs in presence of OBHS by Griess assay relative to control. It counts as cell-based.
A short description of series [7]: Inhibition of NFkappaB in mouse RAW 264.7 cells assessed as reduction in LPS induced NO production after 24 hrs in presence of resveratrol by Griess assay relative to control. The settings on record: RAW264.7, 24 h. Type of series: cell-based.
Series [8] has as its system MCF7. In words: Antiproliferative activity against human MCF7 cells after 72 hrs in presence of resveratrol by MTT assay. It counts as functional, cell-based. The settings on record: MCF7, 72 h.
Series [9] is filed under the species Mus musculus. In words: Inhibition of NFkappaB in mouse RAW 264.7 cells assessed as reduction in LPS induced NO production at 10 uM after 24 hrs in presence of resveratrol by Griess assay relative to control. It counts as cell-based.
For series [10], the system named is Mus musculus. In words: Antiinflammatory activity in Balb/c mouse xenografted with human MCF7 cells assessed as inhibition of TNFalpha expression in tissues around the tumor at 17.5 to 25 mg/kg, po administered once every 2 days via gavage measured after 2 weeks post dose. It counts as functional, organism-based.
The subject of series [11] is MCF7. In words: Antitumor activity against human MCF7 cells xenografted in nude Balb/c mouse assessed as reduction in tumor burden at 25 mg/kg, po administered once every 2 days via gavage measured on day 12. Set-up: scale not given: the % may be the effect or the level left. It counts as functional.
The target in series [12] is T1, Estrogen receptor (Homo sapiens) (UniProt P03372).
T1 sequence (whole entry): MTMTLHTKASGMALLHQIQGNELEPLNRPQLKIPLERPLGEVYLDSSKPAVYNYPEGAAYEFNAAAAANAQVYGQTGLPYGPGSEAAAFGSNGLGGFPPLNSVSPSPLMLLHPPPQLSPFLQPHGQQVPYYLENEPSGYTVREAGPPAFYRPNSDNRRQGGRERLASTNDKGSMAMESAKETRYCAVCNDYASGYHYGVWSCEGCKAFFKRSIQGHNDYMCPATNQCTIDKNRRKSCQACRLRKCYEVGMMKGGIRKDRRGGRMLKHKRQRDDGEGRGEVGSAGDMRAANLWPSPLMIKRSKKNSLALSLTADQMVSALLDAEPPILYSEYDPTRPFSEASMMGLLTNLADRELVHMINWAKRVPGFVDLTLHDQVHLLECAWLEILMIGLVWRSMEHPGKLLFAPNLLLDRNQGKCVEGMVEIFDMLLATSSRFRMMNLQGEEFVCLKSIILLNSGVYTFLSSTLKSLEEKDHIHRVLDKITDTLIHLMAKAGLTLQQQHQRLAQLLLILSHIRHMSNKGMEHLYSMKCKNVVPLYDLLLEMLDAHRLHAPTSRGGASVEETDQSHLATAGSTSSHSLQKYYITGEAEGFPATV
In words: Agonist activity at human ERalpha expressed in HEK293T cells after 24 hrs by ERE-based dual luciferase reporter gene assay relative to E2. It counts as cell-based. For orientation: A reporter such as luciferase makes a cellular process visible.

Series [13] concerns Mus musculus. Briefly: Toxicity in nude Balb/c mouse xenografted with human MCF7 cells assessed as reduction in body weight at 17.5 to 25 mg/kg, po administered once every 2 days via gavage measured every 3 days. Type of series: organism-based. The settings on record: in vivo.
Series [14] has as its target T2, Estrogen receptor beta (Homo sapiens, UniProt Q92731). In words: Binding affinity to human ERbeta LBD after 2 hrs in absence of light by competitive fluorometric binding assay.
Series [15] has as its system MCF7. In words: Antitumor activity against human MCF7 cells xenografted in nude Balb/c mouse assessed as reduction in tumor burden at 17.5 mg/kg, po administered once every 2 days via gavage measured every 3 days. Type of series: functional, organism-based. In general terms: In xenograft studies the graft and the host belong to different species.
In series [16] the target is T3, Estrogen receptor (Homo sapiens, UniProt P03372).
T3 sequence (P03372 whole entry): T1 sequence (whole entry)
In words: Binding affinity to human ERalpha LBD after 2 hrs in absence of light by competitive fluorometric binding assay.

Series [17] relates to MCF7. In words: Antiproliferative activity against human MCF7 cells at 5 to 20 uM after 48 hrs in presence of JSH-23 by MTT assay.
The subject of series [18] is MCF7. Briefly: Antitumor activity against human MCF7 cells xenografted in nude Balb/c mouse assessed as tumor growth inhibition at 25 mg/kg, po administered once every 2 days via gavage measured on day 27. Type of series: functional. The settings on record: read-out: TGI.
Series [19] relates to Mus musculus. Briefly: Antiinflammatory activity in Balb/c mouse xenografted with human MCF7 cells assessed as inhibition of NFkappaB expression in tissues around the tumor at 17.5 to 25 mg/kg, po administered once every 2 days via gavage measured after 2 weeks post dose. Type of series: functional, organism-based.
Series [20] deals with T2, Estrogen receptor beta. Briefly: Agonist activity at human ERbeta expressed in HEK293T cells after 24 hrs by ERE-based dual luciferase reporter gene assay relative to E2. It counts as cell-based.
Series [21] has as its target T2, Estrogen receptor beta. Briefly: Antagonist activity at human ERbeta expressed in HEK293T cells after 24 hrs by ERE-based dual luciferase reporter gene assay. Type of series: cell-based.
In series [22] the target is T2, Estrogen receptor beta. Briefly: Agonist activity at human ERbeta expressed in HEK293T cells after 24 hrs by ERE-based dual luciferase reporter gene assay. It counts as cell-based.
Series [23] has as its target T1, Estrogen receptor (Homo sapiens). In words: Antagonist activity at human ERalpha expressed in HEK293T cells after 24 hrs by ERE-based dual luciferase reporter gene assay relative to E2. It counts as cell-based.
The target in series [24] is T2, Estrogen receptor beta. Briefly: Antagonist activity at human ERbeta expressed in HEK293T cells after 24 hrs by ERE-based dual luciferase reporter gene assay relative to E2. It counts as cell-based. Set-up: concentration or dose not given beside the values.
For series [25], the system named is Mus musculus. Briefly: Antiinflammatory activity in Balb/c mouse xenografted with human MCF7 cells assessed as inhibition of IL6 expression in tissues around the tumor at 17.5 to 25 mg/kg, po administered once every 2 days via gavage measured after 2 weeks post dose. It counts as functional, organism-based.
Series [26] deals with T3, Estrogen receptor. In words: Antagonist activity at human ERalpha expressed in HEK293T cells after 24 hrs by ERE-based dual luciferase reporter gene assay. Type of series: cell-based.

The structures appear in SMILES notation. The source made the active and inactive calls. The rule behind the calls is not given here.

T2 sequence (Q92731 whole entry, the tested form may be a part): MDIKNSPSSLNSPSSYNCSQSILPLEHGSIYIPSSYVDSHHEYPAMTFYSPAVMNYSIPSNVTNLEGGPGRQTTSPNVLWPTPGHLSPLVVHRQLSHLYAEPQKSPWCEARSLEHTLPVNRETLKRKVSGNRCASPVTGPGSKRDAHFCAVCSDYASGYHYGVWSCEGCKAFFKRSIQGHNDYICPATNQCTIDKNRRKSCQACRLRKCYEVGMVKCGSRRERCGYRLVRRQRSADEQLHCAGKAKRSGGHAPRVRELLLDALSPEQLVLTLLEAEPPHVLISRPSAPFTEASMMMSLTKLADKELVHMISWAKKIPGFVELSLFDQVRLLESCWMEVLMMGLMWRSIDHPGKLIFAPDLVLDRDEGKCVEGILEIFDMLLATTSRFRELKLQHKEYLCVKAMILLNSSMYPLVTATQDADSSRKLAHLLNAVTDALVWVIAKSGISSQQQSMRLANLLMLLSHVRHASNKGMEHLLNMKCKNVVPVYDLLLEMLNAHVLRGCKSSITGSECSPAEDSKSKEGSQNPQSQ

As a reminder, the IC50 is the concentration that inhibits the measured activity by half. As a reminder, the inhibition is the share of the control response that was lost under treatment. In the case of `Oc1ccc(/C=C/c2cc(O)cc(O)c2)cc1` [RESVERATROL], the IC50 in series [1] came out at 13.1 µM; in the series with MCF7 [3], 22.9 µM; in [4] it was 11 µM; in the series with MCF7 [5], 25.4 µM. Also, the figures for the inhibition in the series listed under Mus musculus [2] and in the series filed under Mus musculus [6] were 48% and 80.4%, respectively.

Take `O=S(=O)(Oc1ccccc1)[C@H]1C[C@@H]2O[C@@H]1C(c1ccc(O)cc1)=C2c1ccc(O)cc1` (relative stereo): the 50% inhibitory concentration (IC50) was determined as 18.4 µM in series [1], 32 µM in the series on MCF7 [3], 11 µM in series [7] and 25.4 µM in the series with MCF7 [8]. Further, the inhibition came to 41.5% in the series filed under Mus musculus [2] and 80.4% in the series listed under Mus musculus [9].

The Ki is a measure of affinity in units of concentration, obtained from inhibition or displacement. A word on the EC50: it is the concentration needed to bring the measured effect to its halfway point. Take `COc1cc(/C=C/c2ccc(OS(=O)(=O)C3CC4OC3C(c3ccc(O)cc3)=C4c3ccc(O)cc3)cc2)cc(OC)c1` (configuration not stated): the half-inhibitory concentration (IC50) in [1] turned out to be 0.44 µM; in the series with MCF7 [3], 3.7 µM; on Estrogen receptor beta [21], 0.934 µM; against Estrogen receptor [26], 0.007 µM. The inhibition entry with Mus musculus [10], in the series on Mus musculus [19] and in the series with Mus musculus [25] was “Active” throughout. Moreover, the Activity in the series on MCF7 [11] is 55%; in the series on Mus musculus [13] it was “Non-Toxic”. Further, the Efficacy is 9 to 23% in [12], 23% on Estrogen receptor beta [20], 48% in [23] and 32% on Estrogen receptor beta [24]. Also, the Ki at Estrogen receptor beta [14] was 0.0734 µM; at Estrogen receptor [16] it was 0.0349 µM. Further, the result in the series on MCF7 [15] was Active. Moreover, the inhibition in the series listed under Mus musculus [2] was determined as 95.6%. The outcome with MCF7 [17] was inactive. Besides, in the series on MCF7 [18], the inhibition in vivo at 25 mg/kg is at most 69%. The same molecule yielded a half-maximal effective concentration (EC50) at Estrogen receptor beta [22] of 0.004 µM.
